Literature values, collected in patent publication US20070160663A1, “Single unit pharmaceutical composition comprising a mixture of fenofibrate and a modified release form of a homocysteine reducing agent” (GALEPHAR PHARMACEUTICAL RESEARCH, INC., priority 2003, published 2007).
Values belong to the compound of their own block, whether it stands above or below them.

Tmax (time to peak plasma level) (after oral administration of a conventional marketed form such as Lipanthyl tablet or Fenogal capsule): 3 to 6 h
Compound: CC(C)(Oc1ccc(C(=O)c2ccc(Cl)cc2)cc1)C(=O)O [Fenofibric acid]

Tmax (after oral administration): 3 to 6 h
Compound: CC(C)OC(=O)C(C)(C)Oc1ccc(C(=O)c2ccc(Cl)cc2)cc1 [Fenofibrate, p-(4-chlorobenzoyl)-phenoxy isobutyrate isopropyl ester]

elimination half-life (in vivo): 3 h
Compound: Nc1nc2ncc(CNc3ccc(C(=O)N[C@@H](CCC(=O)O)C(=O)O)cc3)nc2c(=O)[nH]1 [folic acid]
